Experimental data from US20240269132A1, “COMPOSITIONS AND METHODS FOR TREATING POLYCYTHEMIA” (Disc Medicine, Inc., priority 0001, published 2024).

How the values were obtained:
Format in all cases: in vivo, C57BL/6J mice
[1] = Body weight in the DPO-induced erythrocytosis study; conditions: 30 or 60 mg/kg orally once daily, 8-day treatment, DPO model (FIG. 2B)
Method: (§1) Briefly, C57BL/6J mice were administrated with DPO subcutaneously at 10 μg/kg/week for 2 weeks to induce erythrocytosis resembling the pathological process of polycythemia vera (FIG. 2A). 30 mg/kg or 60 mg/kg of GlyT1 inhibitor bitopertin or vehicle control was administrated orally into wild type C57BL/6J mice (10 mice per group for the vehicle and 30 mg/kg groups; 15 mice for the 60 mg/kg group) once daily from day 7 to day 15. The 60 mg/kg group was dosed at 20 mg/kg on day 7, 40 mg/kg on day 8-9, 50 mg/kg on day 10-11, 60 mg/kg on day 12-15. Blood samples were collected from submaxillary on day 0 before the first DPO administration, on day 7 before the first dose of GlyT1 inhibitor, and on day 15, 6 hours after the dosing of GlyT1 inhibitor for CBC panel analysis using Sysmex XN-1000™ hematology analyzer.

[2] = tested on: DPO-induced secondary erythrocytosis model; experiment: DPO-induced secondary erythrocytosis murine model: CBC panel
Method: Darbepoietin-alpha (DPO) is a long-lasting analogue of EPO. To investigate the in vivo pharmacodynamic effect of GlyT1 inhibitor in preventing, treating, or reducing the progression rate and/or severity of polycythemia vera for longer periods, DPO was used to stimulate the production of red blood cells and mimicking the hematological features of polycythemia vera where JAK2 mutation drives the erythrocytosis.
as §1

[3] = Plasma drug concentration in the EPO-induced erythrocytosis study; conditions: C57BL/6J, mouse, po, 6 hours after the last dose, 30 mg/kg orally once daily day 1 to 15, mice (FIG. 1C)
Excerpt: (§2) The EPO-induced secondary erythrocytosis model was used to evaluate the in vivo pharmacodynamic effect of GlyT1 inhibitor in preventing, treating, or reducing the progression rate and/or severity of polycythemia vera. Erythropoietin (EPO) stimulates the production of red blood cells and results in increased hematocrit in mice after daily dosing for 7 days at 50 IU. Therefore, the EPO model mimics the hematological parameters of polycythemia vera where JAK2 mutation drives the erythrocytosis. Briefly, 30 mg/kg of GlyT1 inhibitor bitopertin or vehicle control was administrated orally into wildtype C57BL/6J mice (10 mice per group) once daily from day 1 to day 15. 50 IU EPO was administrated daily by intraperitoneal route from day 8 to day 14 to induce erythrocytosis resembling the pathological process of polycythemia vera (FIG. 1A). Blood samples were collected from submaxillary on day 8 before the first EPO administration and on day 15, 6 hours after the last dose of GlyT1 inhibitor for CBC panel analysis using Sysmex XN-1000™ hematology analyzer. Bioanalysis of drug concentration was performed in plasma collected 6 hours after the last dose. All mice were weighed and humanely euthanized. The spleen was weighed and the spleen index was calculated via dividing the weight of spleen by the whole-body weight.

[4] = tested on: EPO-induced secondary erythrocytosis model; experiment: EPO-induced secondary erythrocytosis murine model: spleen index and CBC panel; conditions: 30 mg/kg orally once daily
Excerpt: as §2

[5] = Body weight in the EPO-induced erythrocytosis study; conditions: 30 mg/kg orally once daily, 14-day treatment, EPO model (FIG. 1B)
Excerpt: as §2

concentration at 6 h [3]: 639 ± 38 ng/mL
SMILES: C[C@H](Oc1ccc(S(C)(=O)=O)cc1C(=O)N1CCN(c2ncc(C(F)(F)F)cc2F)CC1)C(F)(F)F [bitopertin]
body-weight changes [1]: No major body-weight changes | reticulocyte hemoglobin (RET-He) ([2]; 30 or 60 mg/kg orally once daily day 7-15, DPO model (FIG. 2F)): significant reduction | mean corpuscular hemoglobin (MCH) ([2]; 30 or 60 mg/kg orally once daily day 7-15, DPO model (FIG. 2G)): significant reduction | mean corpuscular volume (MCV) ([2]; 30 or 60 mg/kg orally once daily day 7-15, DPO model (FIG. 2H)): slightly reduced | hematocrit (HCT %) ([2]; 30 or 60 mg/kg orally once daily day 7-15, DPO model, in a dose dependent manner (FIG. 2C)): reduced | RBC count ([2]; 30 or 60 mg/kg orally once daily day 7-15, DPO model, in a dose dependent manner (FIG. 2D)): reduced | Hemoglobin levels (HGB) ([2]; 30 or 60 mg/kg orally once daily day 7-15, DPO model, in a dose dependent manner (FIG. 2E)): reduced | hematocrit (HCT %) ([4]; EPO model, day 15 (FIG. 1E)): reduced | RBC count ([4]; EPO model, day 15 (FIG. 1F)): reduced | Hemoglobin levels ([4]; EPO model, day 15 (FIG. 1G)): reduced | spleen index (spleen weight / whole-body weight) ([4]; EPO 50 IU i.p. day 8-14, EPO + vehicle 1.56%, normal mice 0.39% (FIG. 1D)): 1.26% | body-weight changes [5]: No major body-weight changes
